Experimental data: patent publication US20240382461A1, “PHARMACEUTICAL COMPOSITION AND METHOD FOR PREVENTION AND TREATMENT OF HEARING LOSS” (PHARMAZZ, INC., priority 2023, published 2024)
“Also recorded” adds a separate entry of the source. Numbered stars: 1 amine (or outer) side, 2 acyl side, 3 side chain; on linkers, the order of the positions; unused ones are H or OH. Ends that are not written are not given here. Suc = O=C(CCC(=O)[*:2])[*:1]

How the values were obtained:
[1] = tested on: adult mouse cochlear cells; test: Cultured adult mouse cochlear cells, JC 1 dye mitochondrial membrane potential, confocal imaging; format: cell-based; conditions: 1 ng/ml for 7 days
Experimental: Inner ears comprising cochlear neuroepithelium from adult mice were dissected after anesthetizing with urethane 1.5 g/kg body weight and euthanizing with cervical dislocation. Inner ears were placed in cold saline, and the cochlea was dissected under the dissection microscope. The isolated cochlea was placed in a cold saline solution and chopped finely in a sterile condition inside a culture hood. Minced tissues were transferred to a 15 ml falcon tube and centrifuged at 1000 RPM for 2 min. The supernatant was discarded, and the pellet was submersed in 1× Trypsin EDTA solution (Cat No. R-001-100, GIBCO, MA) and triturated using a 1 ml pipette and cut-tip. The triturated tissue was incubated at 37° C. for 20 min. After 20 min, the digested tissues were vortexed gently and checked for proper digestion of the tissues. The digestion step was repeated by adding the same volume of 1× trypsin EDTA solution and incubating for 10 minutes. After a satisfactory level of digestion, the tissue solution was filtered with a sieve of pore size 40 μm to isolate cell suspension and remove undigested tissues. The cell suspension was collected in a 15 ml falcon tube, and 1 ml of serum-containing cell culture media was added and mixed properly to stop further digestion. The cochlear cell solution was centrifuged at 2000 RPM for 3 min at RT. The cell pellet was resuspended in 8 ml of 10% fetal bovine serum containing culture media and plated in 60 mm tissue culture-treated plastic plates (Alkali Scientific Inc. Fort Lauderdale, FL). The Neurobasal culture media supplemented with B-27 (Gibco, Waltham, MA) was used for culturing cochlear cells. […]
Sovateltide treatment—The cultured mouse cochlear cells were treated with 1 ng/ml sovateltide for 7 days in 2 different conditions—1) Serum-free media and 2) Serum containing media. […] Fluorescence confocal microscopy imaging was done on live cells. […]
JC-1 is a novel cationic carbocyanine dye that accumulates in mitochondria. The dye exists as a monomer at low concentrations and yields green fluorescence, similar to fluorescein. […]

[2] = target: ETB receptors; conditions: cited from earlier work
[3] = tested on: ETB and vascular endothelial growth factor (VEGF) in the cerebrovasculature; conditions: administration on post-natal day 21; rat brain; cited from earlier work
[4] = tested on: aminoglycoside-induced hearing loss; test: Kanamycin/furosemide (aminoglycoside)-induced hearing loss in mice, intra-tympanic injection, ABR; format: in vivo, mouse; conditions: after kanamycin/furosemide (K/F) exposure; 5 and 15 ug/kg intra-tympanic; 8, 16 and 32 kHz
From the text: (§1) The study aimed to determine whether Sovateltide (IRL-1620, PMZ-1620); an endothelin-B receptor agonist has otoprotective efficacy and that Sovateltide can ameliorate noise- or aminoglycoside-induced hearing loss in a mouse model system. Animals received either unilateral intra-tympanic Sovateltide at one of two dose concentrations or vehicle control injection. The study conducted unilateral auditory brainstem response (ABR) hearing tests at baseline and again at least 14 days after noise or aminoglycoside exposure as the primary measurement. A gross anatomical examination of treated middle ears was also conducted at necropsy.
(§2) FIG. 4 describes the study design where male and female mice were divided into seven groups, each with ten mice. Groups 1-3 were treated with 112-decibel noise to induce cochlear trauma, whereas groups 4-6 were treated with kanamycin+frusomide to induce aminoglycoside-induced cochlear trauma, and group 7 was kept as the control. In addition, Sovateltide in two different doses was administered in groups 1, 2, 4, and 5, while the vehicle, phosphate-buffered saline, was administered in groups 3, 6, and 7. The auditory brainstem response (ABR) test was performed at baseline and day 14 after noise or aminoglycoside exposure.
[Male & female C57Bl/6 mice used in this study were obtained from Charles River Labs. […]

[5] = target: T1, ETA receptors (Sus scrofa, UniProt Q29010); conditions: cited from earlier work
T1 sequence (Q29010 21-427): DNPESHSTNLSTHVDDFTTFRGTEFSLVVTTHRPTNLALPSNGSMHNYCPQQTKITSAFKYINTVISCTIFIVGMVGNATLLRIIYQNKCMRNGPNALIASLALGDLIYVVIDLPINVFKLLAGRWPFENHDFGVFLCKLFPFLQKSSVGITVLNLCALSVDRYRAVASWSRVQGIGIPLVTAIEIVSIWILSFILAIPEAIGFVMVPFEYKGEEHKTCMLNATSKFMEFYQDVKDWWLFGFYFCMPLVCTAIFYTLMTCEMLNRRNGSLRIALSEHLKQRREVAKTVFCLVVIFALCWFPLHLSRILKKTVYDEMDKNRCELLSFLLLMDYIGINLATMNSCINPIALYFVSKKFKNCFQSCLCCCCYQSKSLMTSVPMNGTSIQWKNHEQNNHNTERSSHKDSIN

[6] = tested on: noise-induced hearing loss; test: Noise-induced hearing loss in mice, intra-tympanic injection, auditory brainstem response (ABR); format: in vivo, mouse; conditions: after noise exposure
From the text: as §1, §2
[Male & female C57Bl/6 mice used in this study were obtained from Charles River Labs. All study animals (n=69) underwent anesthesia via 87.5 mg/kg (Ketamine)/12.5 mg/kg (Xylazine) IP injection and baseline unilateral left ear ABR testing at 8, 16, and 32 kHz.
Study animals in Groups 1-6 (n=59) underwent cochlear trauma, either via noise (112 dB SPL, 8-16 kHz band, 2-hr duration) exposure while awake, with the goal of producing a moderate chronic hearing loss in all animals or a single injection of subcutaneous kanamycin and intraperitoneal furosemide on Day 0. The noise treatment typically produced moderate hearing losses in the range of 20-50 dB and scattered losses of outer hair cells but little, if any, loss of inner hair cells. […]

[7] = tested on: ETB receptors; test: Ki of sovateltide for ETB receptors (literature); format: binding; conditions: ratio of Ki values

## synthetic analog of ET-1, ETB receptor agonist; Suc-Asp-Glu-Glu-Ala-Val-Tyr-Phe-Ala-His-Leu-Asp-Ile-Ile-Trp; CAS #142569-99-1 (Suc-DEEAVYFAHLDIIW) [Sovateltide, N-Succinyl-[Glu9, Ala11,15] endothelin 1]
[1]; serum containing media
  mitochondrial protection (JC 1 mitochondrial membrane potential) versus saline control: reduction in compromised mitochondrial protection
[1]; serum-free media
  mitochondrial protection (JC 1 mitochondrial membrane potential) versus saline control: more mitochondrial protection than control
[1]; serum-free media, listed as sovateltide
  mitochondrial protection (JC 1 mitochondrial membrane potential) versus saline control: notable improvement in mitochondrial protection and improved cellular viability
[2]
  Ki: 0.016 nM
[3]
  ETB and VEGF expression in the cerebrovasculature: significant increase
[4]
  ABR threshold shift from baseline to Day 14 versus vehicle: not significantly different; also recorded: did not produce statistically reliable differences; also recorded: did not have any discernible impact
[5]
  Ki: 1900 nM
[6]; 5 ug/kg intra-tympanic, p=0.2513
  ABR threshold shift at 8 kHz versus vehicle: trend of lower threshold shift
[6]; 15 ug/kg intra-tympanic, p=0.0834
  ABR threshold shift at 8 kHz versus vehicle: trend of lower threshold shift; also recorded: nearly significant effect
[6]; 5 and 15 ug/kg intra-tympanic, 8, 16 and 32 kHz
  ABR threshold shift from baseline to Day 14 versus vehicle: not significantly different; also recorded: did not produce statistically reliable differences
[7]
  selectivity for ETB over ETA receptors: ~120,000 times
